# Source: PubChem BioAssay AID330 (DTP/NCI, 2004)
# “And” between values parts separate entries of the source, which are not always exact repeats. Equal entries are not always repeated. Toxic doses and inconclusive results are not listed.
# Tested on: P388 leukemia ip, CD2F1 mice, survival T/C
# Experiment: NCI In Vivo Anticancer Drug Screen. Data for tumor model P388 Leukemia (intraperitoneal) in CD2F1 (CDF1) mice
# Details: endpoint: median survival time, higher = longer survival
# In short: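 Mice carrying the transplanted tumor received test compound or vehicle. Survival was recorded in each group, and the value is the treated-group measurement divided by that of the vehicle-treated control group.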
# [1] = dose: 100.0 mg/kg/injection, schedule: Q01DX001 (ip), vehicle: saline with Tween-80
# [2] = dose: 200.0 mg/kg/injection, schedule: Q01DX009 (ip), vehicle: saline with Tween-80
# [3] = dose: 60.0 mg/kg/injection, schedule: Q01DX005 (ip), vehicle: saline with Tween-80
# [4] = dose: 120.0 mg/kg/injection, schedule: Q01DX005 (ip), vehicle: saline with Tween-80
# [5] = dose: 240.0 mg/kg/injection, schedule: Q01DX005 (ip), vehicle: saline with Tween-80
# [6] = dose: 50.0 mg/kg/injection, schedule: Q01DX009 (ip), vehicle: saline with Tween-80
# [7] = dose: 100.0 mg/kg/injection, schedule: Q01DX009 (ip), vehicle: saline with Tween-80
# [8] = dose: 50.0 mg/kg/injection, schedule: Q01DX005 (ip), vehicle: saline with Tween-80
compound,measurement,setting,value
O=C1C(=O)c2ccc3c(c2-c2cc4c(cc21)OCO4)OCO3,T/C,"dose: 60.0 mg/kg/injection, schedule: Q01DX005 (ip), vehicle: Klucel (hydroxypropylcellulose) (HPC)",86 % of control
same,T/C,"dose: 120.0 mg/kg/injection, schedule: Q01DX005 (ip), vehicle: Klucel (hydroxypropylcellulose) (HPC)",87 % of control
CO[C@H]1C[C@@H]2CC[C@@H](C)[C@@](O)(O2)C(=O)C(=O)N2CCCC[C@H]2C(=O)O[C@H]([C@H](C)C[C@@H]2CC[C@@H](O)[C@H](OC)C2)CC(=O)[C@H](C)C=C(C)[C@@H](O)[C@@H](OC)C(=O)[C@H](C)C[C@H](C)/C=C/C=C/C=C1C,T/C,"dose: 6.25 mg/kg/injection, schedule: Q01DX001 (ip), vehicle: clinical formulation",103 % of control
same,T/C,"dose: 6.25 mg/kg/injection, schedule: Q01DX001 (iv), vehicle: clinical formulation",102 % of control
same,T/C,"dose: 6.25 mg/kg/injection, schedule: Q01DX005 (iv), vehicle: clinical formulation",115 % of control
same,T/C,"dose: 12.5 mg/kg/injection, schedule: Q01DX001 (ip), vehicle: clinical formulation",107 % of control
same,T/C,"dose: 12.5 mg/kg/injection, schedule: Q01DX001 (iv), vehicle: clinical formulation",100 % of control
same,T/C,"dose: 12.5 mg/kg/injection, schedule: Q01DX005 (iv), vehicle: clinical formulation",110 % of control
same,T/C,"dose: 25.0 mg/kg/injection, schedule: Q01DX001 (ip), vehicle: clinical formulation",111 % of control
same,T/C,"dose: 25.0 mg/kg/injection, schedule: Q01DX001 (iv), vehicle: clinical formulation",100 % of control
same,T/C,"dose: 25.0 mg/kg/injection, schedule: Q01DX005 (iv), vehicle: clinical formulation",113 % of control
same,T/C,"dose: 50.0 mg/kg/injection, schedule: Q01DX001 (ip), vehicle: clinical formulation",118 % of control
same,T/C,"dose: 50.0 mg/kg/injection, schedule: Q01DX001 (iv), vehicle: clinical formulation",106 % of control
same,T/C,"dose: 50.0 mg/kg/injection, schedule: Q01DX005 (iv), vehicle: clinical formulation",113 % of control
same,T/C,"dose: 50.0 mg/kg/injection, schedule: Q01DX005 (oral), vehicle: saline with Tween-80",110 % of control
same,T/C,"dose: 50.0 mg/kg/injection, schedule: Q01DX009 (oral), vehicle: saline with Tween-80",116 % of control
same,T/C,"dose: 100.0 mg/kg/injection, schedule: Q01DX001 (ip), vehicle: clinical formulation",117 % of control
same,T/C,[1],124 % of control
same,T/C,"dose: 100.0 mg/kg/injection, schedule: Q01DX001 (iv), vehicle: clinical formulation",104 % of control
same,T/C,"dose: 100.0 mg/kg/injection, schedule: Q01DX005 (ip), vehicle: clinical formulation",110 % of control
same,T/C,"dose: 100.0 mg/kg/injection, schedule: Q01DX005 (oral), vehicle: saline with Tween-80",112 % of control
same,T/C,"dose: 100.0 mg/kg/injection, schedule: Q01DX009 (oral), vehicle: saline with Tween-80",119 % of control
same,T/C,"dose: 200.0 mg/kg/injection, schedule: Q01DX001 (ip), vehicle: clinical formulation",118 % of control
same,T/C,"dose: 200.0 mg/kg/injection, schedule: Q01DX005 (oral), vehicle: saline with Tween-80",108 % of control
same,T/C,[2],122 % of control
same,T/C,"dose: 200.0 mg/kg/injection, schedule: Q01DX009 (oral), vehicle: saline with Tween-80",112 % of control
same,T/C,"dose: 400.0 mg/kg/injection, schedule: Q01DX005 (oral), vehicle: saline with Tween-80",118 % of control
same,T/C,"dose: 400.0 mg/kg/injection, schedule: Q01DX009 (oral), vehicle: saline with Tween-80",116 % of control
same,T/C,"dose: 800.0 mg/kg/injection, schedule: Q01DX005 (oral), vehicle: saline with Tween-80",116 % of control
same,T/C,"dose: 800.0 mg/kg/injection, schedule: Q01DX009 (oral), vehicle: saline with Tween-80",116 % of control
C/C(=N\NC(=S)N(C)C)c1ncccn1,T/C,"dose: 12.5 mg/kg/injection, schedule: Q04DX003 (ip), vehicle: Klucel (hydroxypropylcellulose) (HPC)",107 % of control
same,T/C,"dose: 25.0 mg/kg/injection, schedule: Q04DX003 (ip), vehicle: Klucel (hydroxypropylcellulose) (HPC)",103 % of control
same,T/C,"dose: 50.0 mg/kg/injection, schedule: Q04DX003 (ip), vehicle: Klucel (hydroxypropylcellulose) (HPC)",105 % of control
CC1=C(c2ccco2)C(c2ccco2)OC1=O (configuration not stated),T/C,[3],102 % of control
same,T/C,[4],103 % of control
same,T/C,[5],103 % of control
N#C/C(=C\c1c(Cl)cccc1Cl)c1nc2ccccc2[nH]1,T/C,"dose: 50.0 mg/kg/injection, schedule: Q01DX009 (ip), vehicle: Klucel (hydroxypropylcellulose) (HPC)",115 % of control
same,T/C,"dose: 100.0 mg/kg/injection, schedule: Q01DX009 (ip), vehicle: Klucel (hydroxypropylcellulose) (HPC)",103 % of control
same,T/C,"dose: 200.0 mg/kg/injection, schedule: Q01DX009 (ip), vehicle: Klucel (hydroxypropylcellulose) (HPC)",112 % of control
C1=CC(=NN=P(c2ccccc2)(c2ccccc2)c2ccccc2)C=C1,T/C,[6],89 % of control
same,T/C,[7],102 % of control
same,T/C,[2],97 % of control
C=C(C)C1CC=C(C)C(SCCN(CC)CC)C1 (configuration not stated),T/C,"dose: 50.0 mg/kg/injection, schedule: Q01DX005 (ip), vehicle: Klucel (hydroxypropylcellulose) (HPC)",104 % of control
same,T/C,"dose: 100.0 mg/kg/injection, schedule: Q01DX005 (ip), vehicle: Klucel (hydroxypropylcellulose) (HPC)",109 % of control
same,T/C,"dose: 200.0 mg/kg/injection, schedule: Q01DX005 (ip), vehicle: Klucel (hydroxypropylcellulose) (HPC)",118 % of control
CCOC(=O)N1C=C(C(=O)OC)C(c2ccccc2)C(C(=O)OC)=C1,T/C,[8],95 % of control
same,T/C,"dose: 100.0 mg/kg/injection, schedule: Q01DX005 (ip), vehicle: saline with Tween-80",106 % of control
same,T/C,"dose: 200.0 mg/kg/injection, schedule: Q01DX005 (ip), vehicle: saline with Tween-80",97 % of control
COC(=O)NC1C(=O)OC(C2OC2(C)C)C1(C)C (configuration not stated),T/C,[3],101 % of control and 100 % of control
same,T/C,[4],101 % of control and 99 % of control
same,T/C,[5],100 % of control and 99 % of control
CC(C(=O)O)C1(C(=O)O)CCCCCC1 (configuration not stated),T/C,[1],100 % of control
same,T/C,"dose: 200.0 mg/kg/injection, schedule: Q01DX001 (ip), vehicle: saline with Tween-80",93 % of control
same,T/C,"dose: 400.0 mg/kg/injection, schedule: Q01DX001 (ip), vehicle: saline with Tween-80",109 % of control
O=C(CCl)N1CC2CCC(CC2)C1,T/C,[6],102 % of control
same,T/C,[7],91 % of control
CN(C)c1ccc(C2=C(c3ccccc3)C(=O)C3(c4ccccc4)CC23c2ccc(N(C)C)cc2)cc1 (configuration not stated),T/C,"dose: 50.0 mg/kg/injection, schedule: Q01DX005 (ip), vehicle: Klucel + Tween-80",92 % of control
same,T/C,"dose: 100.0 mg/kg/injection, schedule: Q01DX005 (ip), vehicle: Klucel + Tween-80",90 % of control
same,T/C,"dose: 200.0 mg/kg/injection, schedule: Q01DX005 (ip), vehicle: Klucel + Tween-80",90 % of control
Nc1[nH]c(=O)ncc1-c1ccc([N+](=O)[O-])cc1,T/C,"dose: 12.5 mg/kg/injection, schedule: Q01DX005 (ip), vehicle: saline with Tween-80",95 % of control
same,T/C,"dose: 25.0 mg/kg/injection, schedule: Q01DX005 (ip), vehicle: saline with Tween-80",97 % of control
same,T/C,[8],101 % of control and 105 % of control
CNC1C(O)C2Oc3c(cc(O)c4c3C(=O)c3cc5c(c(O)c3C4=O)C(OC3OC(C)C(OC)C(C)(OC)C3OC)CC(C)(O)C5)C(C)(O2)C1O (configuration not stated),T/C,"dose: 2.06 mg/kg/injection, schedule: Q04DX003 (ip), vehicle: other",97 % of control
same,T/C,"dose: 4.12 mg/kg/injection, schedule: Q04DX003 (ip), vehicle: other",102 % of control
same,T/C,"dose: 8.25 mg/kg/injection, schedule: Q04DX003 (ip), vehicle: other",103 % of control
same,T/C,"dose: 16.5 mg/kg/injection, schedule: Q04DX003 (ip), vehicle: other",124 % of control
same,T/C,"dose: 33.0 mg/kg/injection, schedule: Q04DX003 (ip), vehicle: other",124 % of control
O=NN(CCF)C(=O)NC1CCS(=O)(=O)CC1,T/C,"dose: 1.25 mg/kg/injection, schedule: Q04DX003 (ip), vehicle: saline",177 % of control
same,T/C,"dose: 2.5 mg/kg/injection, schedule: Q01DX009 (ip), vehicle: saline",220 % of control
same,T/C,"dose: 2.5 mg/kg/injection, schedule: Q04DX003 (ip), vehicle: saline",250 % of control
same,T/C,"dose: 5.0 mg/kg/injection, schedule: Q01DX009 (ip), vehicle: saline",300 % of control
same,T/C,"dose: 5.0 mg/kg/injection, schedule: Q04DX003 (ip), vehicle: saline with Tween-80",240 % of control
same,T/C,"dose: 5.0 mg/kg/injection, schedule: Q04DX003 (ip), vehicle: saline",272 % of control
same,T/C,"dose: 6.6 mg/kg/injection, schedule: Q04DX003 (ip), vehicle: saline with Tween-80",280 % of control
same,T/C,"dose: 10.0 mg/kg/injection, schedule: Q01DX009 (ip), vehicle: saline",300 % of control
same,T/C,"dose: 10.0 mg/kg/injection, schedule: Q04DX003 (ip), vehicle: saline with Tween-80",272 % of control and 285 % of control
same,T/C,"dose: 15.0 mg/kg/injection, schedule: Q04DX003 (ip), vehicle: saline with Tween-80",285 % of control
